{
  "source": "patent US10232043B2",
  "about": "“Photoactivated molecules for light-induced modulation of the activity of electrically excitable cells and methods of using the same” (UNIVERSITY OF SOUTHERN CALIFORNIA, priority 2015, dated 2019)",
  "key": {"HEK cells": {"test_system": "HEK cells", "test": "Membrane incorporation of Rubpy-C17 analogues", "assay_type": "cell-based", "conditions": "FIGS. 6A-6C, 7A-7B", "source_text": "In some examples, RubpyC17 can be changed to provide a non-toxic, faster, and highly reversible system that imparts light sensitivity in multiple biological systems. In some embodiments, changing of bipyridine substituents (as shown in as illustrated in FIG. 3) can result in a Ru^3+/2+ reduction potential dynamic range of several hundred millivolts. […] In some examples, the carboxylic acid substituents probe the mechanistic role of charge in the photovoltaic nanoswitch system in addition to the role of the reduction potential. FIGS. 5A-5D illustrates an embodiment of various substituents in place of RubpyC17 in HEK cells. For example, FIG. 5A illustrates TMbpyRubpyC17(PF6) substituted for RubpyC17; FIG. 5B illustrates TMbpyRubpyC17(Cl) substituted for RubpyC17; FIG. 5C illustrates COOHbpyRubpyC17(Na) substituted for RubpyC17; and FIG. 5C illustrates COOHbpyRubpyC17(tBu4N+) substituted for RubpyC17.\nIn some examples, the RubpyC17 molecule can be configured for non-specific targeting and optimized membrane incorporation of photoactive molecular artificial retinas (“MARs”).\nIn some embodiments, membrane incorporation can be an important characteristic of the current system. In some embodiments, changing the counter ion identity of Rubpy-C17 can help to change membrane incorporation properties. […] FIG. 7C illustrates the effect that a treatment of 1 μM of Rubpy-Oleic Acid has on HEK cells while FIG. 7D illustrates the effect that a treatment of 10 μM of Rubpy-Linoleic Acid has on HEK cells."}, "[1]": {"test": "Time-resolved luminescence and electron transfer of D-B-A complex", "assay_type": "physicochemical", "conditions": "degassed dichloromethane, excited at 355 nm, monitored at 560 nm", "experimental": "Time-resolved emission spectroscopy was used to characterize the MLCT excited state of the D-B-A complex (see FIGS. 24A and 24B). Luminescence decay kinetics were recorded in degassed dichloromethane. The D-B-A complex was excited at 355 nm with an 8-ns laser pulse and luminescence was monitored at 560 nm. […] For comparison, the MLCT lifetime of the reference complex, [Re(CO)3(bpy)(py)]+, determined under identical experimental conditions, is 550 ns.\nSelf-association often leads to enhanced quenching, due to the formation of aggregates with short intermolecular donor-acceptor distances.\nWhile the rate of intramolecular electron transfer is concentration independent, intermolecular quenching processes vary predictably with concentration. As such, it is possible to separate the two quenching mechanisms and obtain rate constants for each. Time-resolved luminescence measurements at a series of D-B-A concentrations allow a second order intermolecular quenching rate to be determined. As the concentration was increased, shorter lifetimes were recorded in both dichloromethane and acetonitrile. […]\nIntramolecular electron transfer may also proceed through a through-space coupling mechanism. […] If β values in this range are used, the through-solvent intramolecular electron transfer rate is predicted to fall between 10^4 and 10^6 s^−1, which is competitive with calculated through-bond tunneling rates."}, "HEK293T cells": {"test_system": "HEK293T cells", "test": "Effect of PF6:Cl counter ion ratio of Rubpy-C17 on HEK293T cells", "assay_type": "cell-based", "conditions": "for membrane incorporation: 10 minutes; for Comments (compound stability): degradation seen after two months", "experimental": "In some embodiments, the 20 mg of Rubpy-C17 is stored in −20° C. with desiccant in the dark. […] 253 μl of DMSO is then added into the original bottle containing Rubpy-C17 to make 100 mM stock solution. In some embodiments, the stock solution is aliquot and stored in −20° C. with desiccant in the dark.\nIn some examples, on the day before or on, the same day of the experiment, the following 2.5 mM external solution is prepared using the following steps. The external solution is warmed up to 37° C. For […] of the external solution, 0.176 grams of absorbic acid was added. Another 240 μL 5M NaOH was added to adjust the pH to between about 7.2-7.4. The absorbic solution can then be filtered through a 0.2 μm filter. The solution is then stored in the dark in 4° C. In some examples, the solution must be used within one week.\nThe 100 mM of Rubpy solution is first thawed from −20° C. 100 mM Rubpy is then diluted to 10 mM Rubpy: 2 μL 100 mM Rubpy+18 μL DMSO. In some examples, this is vortexted to mix and then centrifuged down with a small bench-top. The culture, medium is aspirated and the cells are rinsed with external solution several times. The external solution can then be aspirated. In some examples, enough of the external solution is left on the cells to prevent it from drying. 500 μL of external solution with 2.5 mM of ascorbic acid can then be added.\nIn some examples, 1 μL of 10 mM of Rubpy to […] of external solution with 2.5 mM ascorbic acid and mixed well. This should produce a final concentration of 10 μM of Rubpy with 0.1% DMSO. This mixed solution is then added to the above referenced cells and incubated for 10 minutes.\nThe solution can then be aspirated from the plate and rinsed with regular external solution several times. 2 mL of external solution is added to 2.5 mM ascorbic acid for recording. For each plate, a baseline control is taken by recording the first cell before performing any light-stimulating protocol. The light-stimulus can include 10-40 s in duration and bandpassed at 455-495 nm (blue light).\nAs discussed above, the mixture a 10 μM of RubpyC17 solution was placed in 10 HEK293T cells."}, "Nav1.6": {"target": "Nav1.6 (Homo sapiens, UniProt Q9UQD0)", "sequence (Q9UQD0 whole entry, the tested form may be a part)": "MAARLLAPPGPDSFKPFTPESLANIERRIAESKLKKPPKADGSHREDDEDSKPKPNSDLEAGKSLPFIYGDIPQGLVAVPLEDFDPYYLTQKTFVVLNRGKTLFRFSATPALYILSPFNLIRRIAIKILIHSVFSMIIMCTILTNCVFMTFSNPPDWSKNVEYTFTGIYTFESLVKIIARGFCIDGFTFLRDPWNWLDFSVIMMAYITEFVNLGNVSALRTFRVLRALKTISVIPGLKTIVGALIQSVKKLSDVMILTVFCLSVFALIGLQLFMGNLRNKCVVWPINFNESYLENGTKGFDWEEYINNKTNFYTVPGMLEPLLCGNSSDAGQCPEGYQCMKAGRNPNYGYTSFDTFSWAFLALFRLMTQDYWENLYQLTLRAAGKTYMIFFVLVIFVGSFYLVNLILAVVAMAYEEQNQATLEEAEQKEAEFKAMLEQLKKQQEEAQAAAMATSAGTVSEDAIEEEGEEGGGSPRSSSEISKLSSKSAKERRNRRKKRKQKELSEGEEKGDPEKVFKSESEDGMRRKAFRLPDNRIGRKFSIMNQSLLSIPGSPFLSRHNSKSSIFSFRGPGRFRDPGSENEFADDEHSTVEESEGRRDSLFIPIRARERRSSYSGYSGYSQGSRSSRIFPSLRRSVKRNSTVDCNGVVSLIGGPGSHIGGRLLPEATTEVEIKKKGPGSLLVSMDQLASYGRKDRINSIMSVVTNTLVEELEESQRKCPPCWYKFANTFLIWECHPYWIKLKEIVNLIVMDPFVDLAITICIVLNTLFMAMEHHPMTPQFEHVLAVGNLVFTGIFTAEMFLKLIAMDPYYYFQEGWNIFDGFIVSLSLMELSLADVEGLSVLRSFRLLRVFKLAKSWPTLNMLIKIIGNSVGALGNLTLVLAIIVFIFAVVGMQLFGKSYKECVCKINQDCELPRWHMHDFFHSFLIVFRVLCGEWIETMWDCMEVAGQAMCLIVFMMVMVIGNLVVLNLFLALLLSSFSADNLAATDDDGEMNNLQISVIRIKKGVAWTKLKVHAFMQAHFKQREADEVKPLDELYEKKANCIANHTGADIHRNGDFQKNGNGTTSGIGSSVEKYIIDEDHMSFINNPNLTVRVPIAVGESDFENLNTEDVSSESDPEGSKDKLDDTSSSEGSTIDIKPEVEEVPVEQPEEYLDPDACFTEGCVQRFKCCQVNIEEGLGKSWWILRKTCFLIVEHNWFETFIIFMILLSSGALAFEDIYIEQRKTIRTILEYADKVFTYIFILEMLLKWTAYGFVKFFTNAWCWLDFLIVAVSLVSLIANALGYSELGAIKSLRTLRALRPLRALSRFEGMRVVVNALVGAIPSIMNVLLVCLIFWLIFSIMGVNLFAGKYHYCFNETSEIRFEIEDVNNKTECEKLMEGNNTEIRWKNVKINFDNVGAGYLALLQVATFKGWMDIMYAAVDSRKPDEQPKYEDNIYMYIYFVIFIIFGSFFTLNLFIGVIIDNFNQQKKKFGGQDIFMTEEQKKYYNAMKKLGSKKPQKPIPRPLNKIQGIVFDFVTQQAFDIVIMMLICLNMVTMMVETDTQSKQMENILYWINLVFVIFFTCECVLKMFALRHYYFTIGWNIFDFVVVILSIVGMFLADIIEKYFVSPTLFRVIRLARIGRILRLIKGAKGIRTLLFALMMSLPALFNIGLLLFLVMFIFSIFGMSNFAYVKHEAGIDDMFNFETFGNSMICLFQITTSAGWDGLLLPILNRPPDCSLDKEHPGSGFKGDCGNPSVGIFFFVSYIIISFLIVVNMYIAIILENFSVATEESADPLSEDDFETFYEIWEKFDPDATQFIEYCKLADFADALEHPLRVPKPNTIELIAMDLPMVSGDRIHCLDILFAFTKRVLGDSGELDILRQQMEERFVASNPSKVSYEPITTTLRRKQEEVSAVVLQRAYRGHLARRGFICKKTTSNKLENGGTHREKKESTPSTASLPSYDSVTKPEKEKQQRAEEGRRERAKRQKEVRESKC", "conditions": "extracellular loop S1-S2 and S3-S4 in domain II; cited from earlier work"}, "chromaffin cells": {"test_system": "chromaffin cells", "test": "Cell-attached patch test for membrane perforation", "assay_type": "cell-based, mouse", "conditions": "in patch pipette, RubpyC17 18 μM, 10 min, amphotericin B within 5 min", "source_text": "FIGS. 21A-21H depict data from various experiments related to characteristics of RubpyC17-loaded cells. […] Inset images shown to the right of trace confirmed proper integration of RubpyC17 in patched cells. FIGS. 21C-21E show the light-induced action potential firing in chromaffin cells was not due to biophysical changes in voltage-gated ion channels as there were no significant changes in current-voltage relationships (21C-21D) nor in steady-state activation curve (21E) in RubpyC17-loaded chromaffin cells before (open circle) or during (open circle) light illumination. […] Peak inward currents from each stimulation jump were plotted against corresponding stimulating voltages (n=6). […] Data from representative cell is shown (n=5). […] Currents resulting from capacitor-like behavior of chromaffin cell membranes during hyperpolarizing jumps to −85 mV from a resting membrane potential of −80 mV were recorded 5 min following giga-seal formation for amphoterecin B (bottom trace) or 10 min following giga-seal formation for RubpyC17 (top trace).\nFinally, to test whether illumination of RubpyC17 incorporated in cell membranes causes nonspecific membrane poration or other damage, 18 μM RubpyC17 was loaded inside a patch pipette and attached to a cell (gigaseal formation) in the cell-attached configuration. This is the same configuration used routinely for perforated-patch recording. […]"}},
  "note": "Entries after “also recorded” stand apart in the source; their conditions may differ.",
  "data": [
    {"compound": "CCCCCCCCCCCCCCCCCc1ccnc(-c2cc(C)ccn2)c1.Cc1cnc(-c2cc(C)c(C)cn2)cc1C.Cc1cnc(-c2cc(C)c(C)cn2)cc1C.[Ru+2]", "note": "[tetramethyl-substituted bpy Rubpy-C17]", "values": [
      {"measurement": "membrane incorporation", "setting": "HEK cells", "value": "does not evenly incorporate"}
    ]},
    {"compound": "[C-]#[O+].[C-]#[O+].[C-]#[O+].[Re+].c1ccc(-c2ccccn2)nc1.c1ccncc1", "note": "[[Re(CO)3(bpy)(py)]+]", "values": [
      {"measurement": "luminescence (MLCT) lifetime", "setting": "[1]", "value": 550, "unit": "ns"}
    ]},
    {"compound": "CCCCCCCCCCCCCCCCCc1ccnc(-c2cc(C)ccn2)c1.[Cl-].[Cl-].[Ru+2].c1ccc(-c2ccccn2)nc1.c1ccc(-c2ccccn2)nc1", "note": "[PF6:Cl 0:1]", "values": [
      {"measurement": "Cell Death", "setting": "HEK293T cells; 10 μM, HEK293T cells", "value": "cell death was observed"},
      {"measurement": "membrane incorporation", "setting": "HEK293T cells; 10 μM, HEK293T cells", "value": "even incorporation"},
      {"measurement": "membrane incorporation", "setting": "HEK293T cells; 10 μM, HEK293T cells, listed as Rubpy-C17 with only CL Counter ions", "value": "good membrane incorporation was initially observed"},
      {"measurement": "Comments (compound stability)", "setting": "HEK293T cells", "value": "subsequent degradation was observed after two months; also recorded: Unstable,"},
      {"measurement": "Comments (compound stability)", "setting": "HEK293T cells; listed as Rubpy-C17 with only CL Counter ions", "value": "compound degradation was seen subsequently after two months"},
      {"measurement": "membrane incorporation", "setting": "HEK cells", "value": "exceptional membrane incorporation"}
    ]},
    {"compound": "CssII", "values": [
      {"measurement": "binding affinity", "setting": "Nav1.6", "value": "nanomolar affinity"}
    ]},
    {"compound": "CCCCCCCC/C=C\\CCCCCCCC(=O)Nc1cc2cccnc2c2ncccc12.[Ru+2].c1ccc(-c2ccccn2)nc1.c1ccc(-c2ccccn2)nc1", "note": "[Ruphen-C18:1]", "values": [
      {"measurement": "membrane incorporation", "setting": "HEK cells", "value": "exceptional membrane incorporation; also recorded: excellent membrane incorporation"}
    ]},
    {"compound": "C[C@@H]1[C@H](O)[C@@H](C)/C=C/C=C/C=C/C=C/C=C/C=C/C=C/[C@H](O[C@@H]2O[C@H](C)[C@@H](O)[C@H](N)[C@@H]2O)C[C@@H]2O[C@](O)(C[C@@H](O)C[C@@H](O)[C@H](O)CC[C@@H](O)C[C@@H](O)CC(=O)O[C@H]1C)C[C@H](O)[C@H]2C(=O)O", "note": "[amphotericin B, reference compound]", "values": [
      {"measurement": "capacitive charging transient (membrane perforation)", "setting": "chromaffin cells", "value": "sizable capacitive charging transient"}
    ]},
    {"compound": "CCCCC/C=C\\C/C=C\\CCCCCCCC(=O)Nc1cc2cccnc2c2ncccc12.[Ru+2].c1ccc(-c2ccccn2)nc1.c1ccc(-c2ccccn2)nc1", "note": "[Ruphen-C18:2]", "values": [
      {"measurement": "membrane incorporation", "setting": "HEK cells", "value": "excellent membrane incorporation"}
    ]}
  ]
}
